Data: patent publication US20260375151A1, “KETOREDUCTASE MUTANT AND USE THEREOF” (SOUTH CHINA UNIVERSITY OF TECHNOLOGY, priority 2023, published 2026)

Molecular target: T1, Novosphingobium aromaticivorans ketoreductase (NaKRED) mutant Y199A/N149L (parent SEQ ID NO. 2) (Novosphingobium aromaticivorans, UniProt A4XEP2, E216K/G141A/I221V/N149L/Y199A)
T1 construct: substrate 1a with NADH
T1 sequence (A4XEP2 1-259 E216K/G141A/I221V/N149L/Y199A): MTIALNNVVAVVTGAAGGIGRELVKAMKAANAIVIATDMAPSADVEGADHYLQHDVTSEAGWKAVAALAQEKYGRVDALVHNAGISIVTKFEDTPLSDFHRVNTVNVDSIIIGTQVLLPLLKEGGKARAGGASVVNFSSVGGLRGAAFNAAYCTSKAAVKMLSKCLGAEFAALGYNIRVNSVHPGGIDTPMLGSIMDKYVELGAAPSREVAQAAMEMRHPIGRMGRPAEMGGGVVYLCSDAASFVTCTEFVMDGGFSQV
Assay: Enzyme activity assay of purified Y199A/N149L mutant (change in absorbance at 340 nm, NADH)
Format: biochemical
Conditions: role: substrate; 0.5 mM substrate 1a; 1 mM NADH; 0.5 μM purified enzyme; 100 mM PBS pH 7.2
Protocol: The collected wet cells were resuspended in a reaction buffer in a ratio of 1 g wet cells to 15 mL of reaction buffer. The cells were lysed by ultrasonication in an ice bath using cycles of turn-on for 1 s and turn-off for 2 s for a total duration of 45 min. The lysate was centrifuged at 12,000 rpm and 4 °C for 15 min, and the supernatant was filtered through a 0.22 μm membrane for subsequent purification. The purification was performed by Ni-NTA affinity chromatography using a 5 mL of pre-packed column. The entire purification system was first equilibrated with an equilibration buffer, and the sample was loaded at a flow rate of 1 mL/min. Unbound impurity proteins were further removed with the equilibration buffer, and gradient elution was performed by using an elution buffer (500 mM NaCl, and 500 mM imidazole). A target protein was eluted at approximately 150 mM imidazole. The target protein was collected, and concentrated and desalted by using an ultrafiltration tube (50 kDa cutoff) to a final volume of 1 mL. A protein solution was aliquoted and stored at −80 °C for further use.
Therefore, the activity of the mutant was evaluated by monitoring the change in absorbance at 340 nm during the reaction. […] The change in absorbance was monitored over 5 min. […] A sample was prepared by filtration through a 0.22 μm membrane, and the formation of product was detected by HPLC.

Compound: CC(C)C(=O)CC[C@@H](C)[C@H]1CCC2C3C(CC[C@@]21C)[C@@]1(C)CC[C@@H](O)C[C@@H]1C[C@H]3O (stereo partly shown) [1a]
- TON: 438 ± 2.9
